# Positions of bridges follow the written chain, without caps; N, C: chain ends. Non-standard residues stand in square brackets, D forms with d. Residues, ends and D or L forms follow the SMILES beside them. Thz = O=C(O)[C@@H]1CSCN1
# Molecular target: T1, human MC4R (Homo sapiens, UniProt P32245)
# T1 construct: expressed in transfected cells
# Assay: Functional cAMP assay (CisBio HTRF) in BHK cells expressing human MC4R
# Format: cell-based
# Summary of the method: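 Compound working solutions, 10-fold dilutions from 2 μM at twice final strength, in buffer containing 1 mM IBMX, were incubated 30 min at 25 °C with BHK cells stably carrying human MC4R or MC1R. Accumulated cAMP was then detected by competitive HTRF after 1 h at 25 °C and fitted by non-linear regression.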
# T1 sequence (P32245 whole entry): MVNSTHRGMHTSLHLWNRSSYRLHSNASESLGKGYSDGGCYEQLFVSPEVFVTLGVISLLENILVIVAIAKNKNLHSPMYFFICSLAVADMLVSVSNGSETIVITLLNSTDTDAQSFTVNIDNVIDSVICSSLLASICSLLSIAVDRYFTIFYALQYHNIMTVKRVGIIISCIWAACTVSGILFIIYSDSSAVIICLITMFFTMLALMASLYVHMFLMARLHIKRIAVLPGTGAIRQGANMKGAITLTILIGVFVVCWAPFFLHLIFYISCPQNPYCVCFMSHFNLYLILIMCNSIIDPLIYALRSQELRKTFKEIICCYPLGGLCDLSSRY
smiles,measurement,setting,value
"C[C@@H]1NC(=O)[C@H](CCCCN)NC(=O)[C@@H]2CSSC[C@H](NC(=O)[C@H](Cc3c[nH]c4ccccc34)NC(=O)[C@H](C)NC(=O)[C@@H](CCCCN)NC1=O)C(=O)N1CSC[C@H]1C(=O)N[C@@H](Cc1c[nH]cn1)C(=O)N[C@H](Cc1ccccc1)C(=O)N[C@@H](Cc1c[nH]cn1)C(=O)N[C@@H](Cc1c[nH]c3ccccc13)C(=O)N2 [Chem. 114, c[c[Cys-THAZ-His-D-Phe-His-Trp- Cys]-Lys-Ala-D-Lys-Ala-Trp]] (cyclo(AWC[Thz]H[dF]HWCKA[dK]); disulfide 3-9)",EC50,"BHK cells expressing human MC4R, '>' = highest dose used with no response, read-out: MC4R cAMP EC50",0.04 nM
same,MC1R/MC4R cAMP EC50 ratio,MC1R cAMP EC50 divided by MC4R cAMP EC50,2844

# Reference: patent US20200223889A1, “Bicyclic Compounds Capable of Binding to Melanocortin 4 Receptor” (Novo Nordisk A/S, priority 2017, published 2020)
